Reference: the supplement of paper PMC10307832

Assays:
Experiment in all cases: relative viability (nuclei count vs DMSO), 5 days (fraction); higher = more cells survive
Shikonin + Decitabine = compound: CC(C)=CC[C@@H](O)C1=CC(=O)c2c(O)ccc(O)c2C1=O [Shikonin] + Nc1ncn([C@H]2C[C@H](O)[C@@H](CO)O2)c(=O)n1 [Decitabine] (partner 2 µM)
In short: (§1)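 Lung cancer cell lines, seeded in 1536-well plates, were treated the following day by pin tool with a single drug or with five library-drug doses (not always all listed) in √10 steps on top of a fixed anchor-drug dose. Cells were fixed and nuclei stained in one step after 5 days, and nuclei were counted. Relative viability is the nuclei count for treated wells divided by that for vehicle wells, reported as medians of duplicate plates.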

[1] = compound: CC(C)N(CCCNC(=O)Nc1ccc(C(C)(C)C)cc1)C[C@H]1O[C@@H](n2ccc3c(N)ncnc32)[C@H](O)[C@@H]1O + CC1(C)CCC(c2ccc(Cl)cc2)=C(CN2CCN(c3ccc(C(=O)NS(=O)(=O)c4ccc(N[C@H](CCN5CCOCC5)CSc5ccccc5)c(S(=O)(=O)C(F)(F)F)c4)cc3)CC2)C1 [Navitoclax] (partner 0.5 µM)
In short: as §1

Shikonin + Trametinib = compound: CC(C)=CC[C@@H](O)C1=CC(=O)c2c(O)ccc(O)c2C1=O [Shikonin] + CC(=O)Nc1cccc(-n2c(=O)n(C3CC3)c(=O)c3c(Nc4ccc(I)cc4F)n(C)c(=O)c(C)c32)c1 [Trametinib] (partner 0.02 µM)
In short: as §1

Shikonin + Phenformin = compound: CC(C)=CC[C@@H](O)C1=CC(=O)c2c(O)ccc(O)c2C1=O [Shikonin] + N=C(N)NC(=N)NCCc1ccccc1 [Phenformin] (partner 250 µM)
In short: as §1

Row | Cell Line | relative viability (Shikonin + Decitabine; first compound 0.01 µM) | relative viability (Shikonin + Decitabine; first compound 0.1 µM) | relative viability (Shikonin + Decitabine; first compound 0.3162 µM) | relative viability (Shikonin + Decitabine; first compound 1 µM) | relative viability ([1]; first compound 0.08 µM) | relative viability ([1]; first compound 0.8 µM) | relative viability ([1]; first compound 2.53 µM) | relative viability ([1]; first compound 8 µM) | relative viability (Shikonin + Trametinib; first compound 0.01 µM) | relative viability (Shikonin + Trametinib; first compound 0.1 µM) | relative viability (Shikonin + Trametinib; first compound 0.3162 µM) | relative viability (Shikonin + Trametinib; first compound 1 µM) | relative viability (Shikonin + Phenformin; first compound 0.01 µM) | relative viability (Shikonin + Phenformin; first compound 0.1 µM) | relative viability (Shikonin + Phenformin; first compound 0.3162 µM) | relative viability (Shikonin + Phenformin; first compound 1 µM) | relative viability ([1]; first compound 0.253 µM)
1 | NCI-H1793 | 0.513 | 0.565 | 0.451 | 0.456 | 0.487 | 0.393 | 0.505 | 0.357 | 0.393 | 0.414 | 0.392 | 0.417 | 0.424 | 0.417 | 0.41 | 0.404 | 
2 | NCI-H647 | 0.364 | 0.504 | 0.346 | 0.328 | 0.894 | 1.07 | 1.06 | 1.05 | 0.414 | 0.356 | 0.443 | 0.451 | 0.572 | 0.677 | 0.477 | 0.538 | 
3 | NCI-H596 | 1.08 | 1.03 | 0.981 | 1.25 | 0.98 | 0.909 | 1.01 | 0.992 | 0.94 | 0.827 | 0.841 | 0.839 | 0.798 | 0.858 | 0.893 | 0.897 | 0.877
4 | EKVX | 0.295 | 0.367 | 0.312 | 0.584 | 0.905 | 0.976 | 0.95 | 0.915 | 0.326 | 0.336 | 0.389 | 0.398 | 0.213 | 0.229 | 0.233 | 0.243 | 0.974
5 | EPLC-272H | 0.344 | 0.387 | 0.371 | 0.358 | 1.03 | 0.989 | 1.12 | 1.02 | 0.286 | 0.335 | 0.265 | 0.244 | 0.282 | 0.309 | 0.255 | 0.298 | 0.981
6 | NCI-H1395 | 0.719 | 0.796 | 0.692 | 0.71 | 1.17 |  | 1.23 | 1.53 | 0.994 | 1.18 | 1.09 | 0.923 | 0.42 | 0.484 | 0.419 | 0.459 | 1.1
7 | LXF-289 | 0.356 | 0.342 | 0.453 | 0.378 | 1 | 0.957 | 0.988 | 0.854 | 0.668 | 0.756 | 0.712 | 0.701 | 0.533 | 0.526 | 0.535 | 0.535 | 0.969
8 | NCI-H2023 | 0.201 | 0.251 | 0.236 | 0.225 | 0.989 | 1.01 | 1.05 | 0.988 | 0.546 | 0.534 | 0.64 | 0.56 | 0.352 | 0.386 | 0.452 | 0.341 | 1.05
9 | NCI-H3122 | 0.485 | 0.467 | 0.443 | 0.458 | 1.03 | 1.04 | 0.985 | 0.931 | 0.183 | 0.292 | 0.211 | 0.266 | 0.391 | 0.417 | 0.391 | 0.399 | 0.997
10 | NCI-H1755 | 0.735 | 0.768 | 0.761 | 0.712 | 0.986 | 0.923 | 0.958 | 0.914 | 0.703 | 0.812 | 0.756 | 0.742 | 0.696 | 0.668 | 0.659 | 0.55 | 0.99
11 | HCC-78 | 0.71 | 0.638 | 0.721 | 0.732 | 0.704 | 0.607 | 0.784 | 0.839 | 0.773 | 0.906 | 0.828 | 0.734 | 0.66 | 0.705 | 0.697 | 0.806 | 0.646
12 | LOU-NH91 | 0.787 | 0.879 | 0.856 | 0.816 | 0.628 |  | 0.652 | 0.606 | 0.815 | 0.839 | 0.838 | 0.791 | 0.685 | 0.755 | 0.754 | 0.715 | 0.581
13 | NCI-H322M | 0.736 | 0.723 | 0.714 | 0.664 | 1.16 | 1.19 | 1.2 | 1.16 | 0.498 | 0.459 | 0.513 | 0.564 | 0.871 | 0.856 | 0.754 | 0.836 | 1.09
14 | HCC-827 | 0.326 | 0.29 | 0.33 | 0.329 | 0.992 |  | 0.962 | 0.977 | 0.561 | 0.496 | 0.563 | 0.517 | 0.438 | 0.404 | 0.42 | 0.373 | 0.949
15 | NCI-H1975 | 0.377 | 0.392 | 0.36 | 0.381 | 0.978 | 1.17 | 0.923 | 0.835 | 0.275 | 0.367 | 0.33 | 0.321 | 0.417 | 0.431 | 0.413 | 0.408 | 1.18
16 | NCI-H1651 | 0.621 | 0.656 | 0.66 | 0.641 | 1.01 | 1.09 | 1.05 | 0.995 | 0.882 | 0.873 | 0.882 | 0.83 | 0.381 | 0.377 | 0.281 | 0.349 | 1.04
17 | NCI-H460 | 0.446 | 0.685 | 0.504 | 0.516 | 1.01 | 1.12 | 1.27 | 0.9 | 0.159 | 0.164 | 0.131 | 0.135 | 0.515 | 0.64 | 0.51 | 0.474 | 1.16
18 | LCLC-97TM1 | 0.257 | 0.232 | 0.215 | 0.242 | 0.407 | 0.296 | 0.273 | 0.432 | 0.179 | 0.237 | 0.2 | 0.202 | 0.495 | 0.449 | 0.437 | 0.472 | 
19 | PC-14 | 0.216 | 0.278 | 0.413 | 0.161 | 1 | 0.946 | 1.03 | 0.847 | 0.936 | 0.9 | 0.893 | 0.769 | 0.587 | 0.619 | 0.597 | 0.637 | 0.996
